Results as given in US20230069886A1, “AROMATIC SULPHONAMIDES DERIVATIVES THAT INHIBITS PDI A3, THEIR SYNTHESIS AND USE” (Uniwersytet Jagiellonski, priority 2020, published 2023).
Values after ≈ are worked out from the molar mass of the structure shown.

Experiments:
HT-29 = experiment: MTT antiproliferative assay, 72 h, HT-29; assay type: cell-based, human; conditions: 72 hours exposition
Description: Anticancer activity of selected compounds of invention, PDI A3-inhibitors has been also tested in vitro in antiproliferative assay in normoxic and hypoxic conditions as well in estrogen-stimulated cancer cells. In the experiment, cells were seeded on 96-well plates (Sarstedt, Germany) in appropriate culture medium at a density of 10^5 cells/mL 24 h before adding the tested compounds. Cells were treated with each compound in four concentrations in the range 0.1-100 μg/mL. […] After 72 h of compound treatment at 37° C., 5% CO2 humid atmosphere and in wo different oxygen level conditions: 21%—normal and <1%—hypoxia. In some experiments the MDA-MB-231 and MCF-7 cells were seeded with or without 200 nM estradiol and after 24 h the tested compounds were added. […] Briefly, cells were fixed with 50 μL/well of 50% (w/v) trichloroacetic acid (Avantor Performance Materials, Gliwice, Poland). After 1 h incubation, plates were washed several times with tap water and 50 μL of 0.4% (w/v) solution of sulforhodamine B (Sigma-Aldrich, Germany) in 1% (v/v) acetic acid (Avantor Performance Materials, Gliwice, Poland) was added to each well. After 30 min incubation at room temperature, unbound dye was washed out with 1% (v/v) acetic acid, whereas bound dye was solubilized with 10 mM unbuffered TRIS (Avantor Performance Materials, Gliwice, Poland) solution. The entire procedure was performed using a BioTek EL-406 washing station (BioTek Instruments, USA). After additional 30 min, absorbance was read using a Biotek Hybrid H4 reader (BioTek Instruments, USA) at 540 nm wavelength. […] Absorbance was measured using a Biotek Hybrid H4 reader at 570 nm wavelength for MTT assay.
(§1) Compounds at each concentration were tested in triplicate in a single experiment and each experiment was repeated at least three times independently. Results are presented as mean IC50±SD.

MDA-MB-231 = experiment: MTT antiproliferative assay, 72 h, with or without estradiol, MDA-MB-231; assay type: cell-based, human
Description: Anticancer activity of selected compounds of invention, PDI A3-inhibitors has been also tested in vitro in antiproliferative assay in normoxic and hypoxic conditions as well in estrogen-stimulated cancer cells. In the experiment, cells were seeded on 96-well plates (Sarstedt, Germany) in appropriate culture medium at a density of 10^5 cells/mL 24 h before adding the tested compounds. Cells were treated with each compound in four concentrations in the range 0.1-100 μg/mL. […] After 72 h of compound treatment at 37° C., 5% CO2 humid atmosphere and in wo different oxygen level conditions: 21%—normal and <1%—hypoxia. In some experiments the MDA-MB-231 and MCF-7 cells were seeded with or without 200 nM estradiol and after 24 h the tested compounds were added. A previously described sulforhodamine B antiproliferative assay was used with minor modifications (Skehan P et al., 1990). Briefly, cells were fixed with 50 μL/well of 50% (w/v) trichloroacetic acid (Avantor Performance Materials, Gliwice, Poland). After 1 h incubation, plates were washed several times with tap water and 50 μL of 0.4% (w/v) solution of sulforhodamine B (Sigma-Aldrich, Germany) in 1% (v/v) acetic acid (Avantor Performance Materials, Gliwice, Poland) was added to each well. After 30 min incubation at room temperature, unbound dye was washed out with 1% (v/v) acetic acid, whereas bound dye was solubilized with 10 mM unbuffered TRIS (Avantor Performance Materials, Gliwice, Poland) solution. The entire procedure was performed using a BioTek EL-406 washing station (BioTek Instruments, USA). After additional 30 min, absorbance was read using a Biotek Hybrid H4 reader (BioTek Instruments, USA) at 540 nm wavelength. MTT assay was used alternatively for HL-60 cell line and in the experiment in which estrogens are added (specified in the table legend). Absorbance was measured using a Biotek Hybrid H4 reader at 570 nm wavelength for MTT assay.
as §1

PDI A3 = target: T1, PDI A3 (Homo sapiens, UniProt P30101); experiment: PDI A3 inhibition, insulin turbidimetric assay; assay type: biochemical; conditions: 10 ug/ml PDI A3, incubated 60 min at 37° C., turbidity at 650 nm; read-out: Inhibition of PDI A3 (EC 50)
T1 construct: purchased Mybiosource; host or cells: E. coli
T1 sequence (P30101 25-505): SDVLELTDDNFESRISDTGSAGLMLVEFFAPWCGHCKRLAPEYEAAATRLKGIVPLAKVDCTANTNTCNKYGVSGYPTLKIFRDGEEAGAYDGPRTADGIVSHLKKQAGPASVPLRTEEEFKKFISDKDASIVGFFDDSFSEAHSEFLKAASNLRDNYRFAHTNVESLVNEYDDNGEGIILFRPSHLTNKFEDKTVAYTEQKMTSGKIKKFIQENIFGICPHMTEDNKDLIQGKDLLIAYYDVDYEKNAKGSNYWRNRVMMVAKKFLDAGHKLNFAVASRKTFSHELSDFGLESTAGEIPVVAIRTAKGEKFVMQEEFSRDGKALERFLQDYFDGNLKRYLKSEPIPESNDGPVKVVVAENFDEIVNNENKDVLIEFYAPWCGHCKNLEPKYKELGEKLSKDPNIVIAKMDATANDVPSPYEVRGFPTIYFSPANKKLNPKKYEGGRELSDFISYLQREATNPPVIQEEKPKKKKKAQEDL
Summary of the method: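 Recombinant E. coli-expressed PDIA3 (10 ug/ml) was preincubated with compound for 60 min at 37° C in 0.1 mM phosphate buffer pH 7.6, 1 mM EDTA, 0.087 mM DTT. Reaction was started with insulin (0.15 mM final) and DTT (0.174 mM final). Insulin reduction was followed as turbidity at 650 nm over 120-s recordings, against reference samples without PDI.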

COC(=O)C1CN1S(=O)(=O)c1ccc2c(C=O)c(N(C)C)ccc2c1 (centres unmarked) [Compound C-3390, Methyl 1-[[6-(dimethylamino)-5-formyl-2-naphthyl]sulfonyl]aziridine-2-calboxylate]
IC50 [μg/ml] HT-29 normal (HT-29): 33.6 ± 2.9 µg/mL (≈ 92.7 µM) | Sensitivity of MDA-MB-231 line after treatment with estradiol (MDA-MB-231; estradiol (200 nM), Table 4): slightly lower sensitivity | IC50 [μg/ml] MDA-MB-231 normal (MDA-MB-231; not pretreated with estradiol, 72 hours exposition, MTT): 3.2 ± 0.2 µg/mL (≈ 8.83 µM) | IC50 [μg/ml] MDA-MB-231 +estradiol (MDA-MB-231; pretreated with 200 nM estradiol, 72 hours exposition, MTT): 9.4 ± 3.5 µg/mL (≈ 25.9 µM) | EC50 (PDI A3): 4 µM
